In patent US20260240847A1, “COMPOUNDS WITH ANTI-TUMOR ACTIVITY AGAINST CANCER CELLS BEARING TYROSINE KINASE INHIBITOR RESISTANT EGFR MUTATIONS” (BOARD OF REGENTS, THE UNIVERSITY OF TEXAS SYSTEM, priority 2019, published 2026):

Key:
Test in all cases: Ba/F3 cell viability, Cell Titer Glo
EGFR L858R T790M/C797S = EGFR L858R T790M/C797S (Homo sapiens, UniProt P00533, C797S/L858R/T790M); conditions: read-out: IC50 Values; Ba/F3 cells expressing EGFR L858R T790M/C797S, 72 hours
Experimental: (§1) Cell viability was determined by the Cell Titer Glo assay.
(§2) Briefly, stable Ba/F3 cell lines were generated by retroviral transduction of Ba/F3 cell line for 12 hours. […] Three days after transduction, 2 μg/ml puromycin (Invitrogen) was added to the RPMI media. Cell lines were then grown in the absence of IL-3 for two weeks and cell viability was assessed every three days using the Cell Titer Glo assay (Progema).
(§3) Briefly, 2000-3000 cells per well were plated in 384-well plates (Greiner Bio-One) in technical triplicate. Cells were treated with seven different concentrations of tyrosine kinase inhibitors or vehicle alone at a final volume of 40 μL per well. After 3 days, 11 μL of Cell Titer Glo was added to each well. Plates were shaken for 15 minutes, and bioluminescence was determined using a FLUOstar OPTIMA multi-mode micro-plate reader (BMG LABTECH). Bioluminescence values were normalized to DMSO treated cells, and normalized values were plotted in GraphPad Prism using non-linear regression fit to normalized data with a variable slope.

EGFR E709K G719S = EGFR E709K G719S (Homo sapiens, UniProt P00533, E709K/G719S); conditions: read-out: IC50 Values; Ba/F3 cells expressing EGFR E709K G719S, 72 hours
Experimental: as §1, §2, §3

EGFR S768I/T790M = EGFR S768I/T790M (Homo sapiens, UniProt P00533, S768I/T790M); conditions: read-out: IC50 Values; Ba/F3 cells expressing EGFR S768I/T790M, 72 hours
Experimental: as §1, §3

EGFR T790M = EGFR T790M (Homo sapiens, UniProt P00533, T790M); conditions: read-out: IC50 Values; Ba/F3 cells expressing EGFR T790M, 72 hours
Experimental: as §1, §2, §3

EGFR E709AG719S = EGFR E709AG719S (Homo sapiens, UniProt P00533, E709A/G719S); conditions: read-out: IC50 Values; Ba/F3 cells expressing EGFR E709AG719S, 72 hours
Experimental: as §1, §2, §3

EGFR Ex19del/L792H = EGFR Ex19del/L792H (Homo sapiens, UniProt P00533, DEL746-750/L792H); conditions: read-out: IC50 Values; Ba/F3 cells expressing EGFR Ex19del/L792H, 72 hours
Experimental: (§4) The transforming capability of the mutations was then evaluated by sustained cell viability following IL-3 deprivation. Activating EGFR mutant Ba/F3 cells were then screened against EGFR TKIs. Cell viability was determined by the Cell Titer Glo assay.
(§5) Ba/F3 cells expressing acquired atypical mutations spanning exons 18-21 were treated with inhibitors for 72 hours. […] Briefly, stable Ba/F3 cell lines were generated by retroviral transduction of Ba/F3 cell line for 12 hours. […] Three days after transduction, 2 μg/ml puromycin (Invitrogen) was added to the RPMI media. Cell lines were then grown in the absence of IL-3 for two weeks and cell viability was assessed every three days using the Cell Titer Glo assay (Progema).
as §3

EGFR L858R/L718V = EGFR L858R/L718V (Homo sapiens, UniProt P00533, L718V/L858R); conditions: read-out: IC50 Values; Ba/F3 cells expressing EGFR L858R/L718V, 72 hours
Experimental: as §4, §5, §3

EGFR L858R/V834L = EGFR L858R/V834L (Homo sapiens, UniProt P00533, L858R/V834L); conditions: read-out: IC50 Values; Ba/F3 cells expressing EGFR L858R/V834L, 72 hours
Experimental: as §4, §5, §3

EGFR L858R G796S = EGFR L858R G796S (Homo sapiens, UniProt P00533, G796S/L858R); conditions: read-out: IC50 Values; Ba/F3 cells expressing EGFR L858R G796S, 72 hours
Experimental: as §4, §5, §3

Work on `C=CC(=O)N1CC[C@@H](Oc2nc(Nc3ccc(N4CCC(N5CCN(C)CC5)CC4)cc3)c(C(N)=O)nc2CC)C1` [Naquotinib] yielded an IC50 (EGFR L858R T790M/C797S) of 4350 nM, an IC50 (EGFR E709K G719S) of 15.2 nM and an IC50 (EGFR S768I/T790M) of 19.2 nM. The IC50 (EGFR T790M) was 54.4 nM, the IC50 (EGFR E709AG719S) was 48.1 nM and the IC50 (EGFR Ex19del/L792H) was 3.94 nM. For the same compound, the IC50 (EGFR L858R/L718V) was 18.8 nM, the IC50 (EGFR L858R/V834L) was 7.19 nM and the IC50 (EGFR L858R G796S) was 423 nM.
